The values that follow are results of earlier work, collected in patent publication US20130071871A1, “ENZYMATIC DETERMINATION OF LITHIUM IONS USING PHOSPHOGLUCOMUTASE” (SPECIALTY ASSAYS, INC., priority 2011, published 2013).

A value given as a limit tells only on which side of the number the result lay.

For `[Li]` [Lithium], the highly toxic level (level chosen for the elevated lithium standard, well above the therapeutic range) was ~3 mmol/L. In addition, the “serum level too high, severe toxic side effects can occur” value (serum) is > 1200 µM.
